# From patent US4904672A, “Derivatives of 3-hydroxyazabenzo[b]thiophene useful as 5-lipoxygenase inhibitors” (Merck & Co., Inc., priority 1988, dated 1990)
# What was measured:
# PMN 5-lipoxygenase = target: T1, PMN 5-lipoxygenase (Rattus norvegicus, UniProt P12527); assay: Inhibition of PMN 5-lipoxygenase in the rat (LTB4 by RIA, A23187-stimulated PMN); type: cell-based, rat (male Sprague-Dawley); settings: for inhibition at 1000 µg/mL: dose 1 mg/ml; for inhibition at 10 µg/mL: dose 0.01 mg/ml; for inhibition at 30 µg/mL: dose 0.03 mg/ml
# T1 sequence (P12527 1-673): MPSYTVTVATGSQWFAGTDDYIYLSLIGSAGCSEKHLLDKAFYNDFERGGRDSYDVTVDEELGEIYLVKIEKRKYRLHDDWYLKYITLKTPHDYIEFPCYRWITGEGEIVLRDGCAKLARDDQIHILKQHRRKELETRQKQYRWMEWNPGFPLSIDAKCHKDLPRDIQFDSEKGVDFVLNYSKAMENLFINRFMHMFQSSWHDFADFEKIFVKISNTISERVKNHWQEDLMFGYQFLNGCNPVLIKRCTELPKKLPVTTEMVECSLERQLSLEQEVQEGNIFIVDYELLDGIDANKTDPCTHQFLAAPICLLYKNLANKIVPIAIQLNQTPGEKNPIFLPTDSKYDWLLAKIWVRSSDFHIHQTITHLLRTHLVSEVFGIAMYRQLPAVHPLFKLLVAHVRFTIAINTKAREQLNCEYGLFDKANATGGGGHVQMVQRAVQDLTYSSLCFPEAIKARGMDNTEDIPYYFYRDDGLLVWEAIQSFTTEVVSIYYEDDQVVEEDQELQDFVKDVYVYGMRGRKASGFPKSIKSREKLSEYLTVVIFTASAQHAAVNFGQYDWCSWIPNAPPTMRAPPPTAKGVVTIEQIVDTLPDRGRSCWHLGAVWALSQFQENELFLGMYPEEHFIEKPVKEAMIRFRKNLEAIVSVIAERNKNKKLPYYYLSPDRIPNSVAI
# Protocol: 2. Inhibition of PMN 5-lipoxygenase in the rat Methods
# Male Sprague-Dawley rates under ether anesthesia were injected i.p. with 8 mls of 12% aqueous sodium caseinate. After 15-24 hours the animals were sacrificed with CO2 and the peritoneal cavities were lavaged with Eagles MEM with Earles salts and containing L-glutamine and 30 mM HEPES. The pH was adjusted to 7.4. The lavage fluid was centrifuged for 5 minutes at 350×g at room temperature. The cells were resuspended in fresh medium and filtered through lens paper. The cells were pelleted again and reconstituted to concentration of 1×10^7 cells/ml with fresh medium.
# The experiments were run as follows: 0.5μ of test compound in DMSO or 0.5 μl DMSO alone was added to reaction tubes. 0.5 ml aliquots of the stirred PMN suspension maintained at 37° C. were then added. After 2 minutes, 0.5 μl of 10 mM A23187 (final concentration=10 μM) or 0.5 μl of DMSO was added and allowed to incubate for 4 additional minutes at 37° C. The reaction was stopped by the addition of 0.5 ml of cold methanol. The precipitated proteins were removed by centrifugation and the supernatant fluid was analyzed via RIA or HPLC.
# Radioimmunoassay determinations of LTB4
# Radioimmunoassays were performed using the dextran-coated charcoal binding method as described by J. L. Humes in Methods for Studying Mononuclear Phagocytes (Eds. D. Adams et al.) p. 641, Academic Press, N.Y. (1981).
# Aliquots, 2 μl, of the supernatant fluids were added to assay tubes and incubated for 10 minutes at 37° C. to remove methanol. Fifty μl of tissue culture medium M-199 containing 1 percent heat-inactivated-porcine serum was then added to each tube. Standard amounts of LTB4 were also prepared in this medium so that 50 μl aliquots contained 25-1000 pg. Antisera to LTB4 was diluted 1:3000 with 10 mM potassium phosphate, pH 7.3 containing 1 mM ethylenediaminetetracetic acid and 0.25 mM thimerasol (PET buffer). Aliquots, 100 μl, of the diluted antisera were added to both standard and unknown tubes and incubated at room temperature for 0.5 hour. (5,6,8,9,11,12,14,15-^3 H)-LTB4 (Amersham, 150 Ci/mMol) was diluted with PET to a concentration of 1 nCi/ml. Aliquots, 100 μl , were added and the mixture incubated for 2 hours at room temperature or alternatively overnight at 4° C. One ml of dextran-coated charcoal solution is added to all tubes. After centrifugation for 10 minutes at 1000×g the radioactivity in the supernatant fluid was determined.
# The dextran-coated charcoal removes the unbound ^3 H-LTB4. Therefore in this procedure the antibody-bound-^3 H-LTB4 is measured. The RIA^4 determinations are performed on single samples.
# [1] = test system: Brewer's yeast-induced hyperalgesia (pain response); assay: Brewer's Yeast Hyperalgesia Assay in the rat; type: in vivo, rat (female Sprague-Dawley); settings: 3 mg/kg p.o.
# Protocol: In this assay, which is sensitive to inhibition by lipoxygenase and cyclooxygenase inhibitors, compounds of formula I reduced the pain response induced by Brewer's yeast (Table 1a).
# Groups of 10 female Sprague-Dawley rats, weighing 35-50 grams (Charles River Breeding Laboratories), were fasted overnight prior to testing. For each animal, 0.1 ml of the edema-inducing Brewer's yeast suspension (5% homogenate in physiological saline) was injected into the right hindpaw. Pain threshold was measured by applying pressure to the plantar surface of the hindpaw by means of a compressed air driven piston with a 2 mm. tip. Testing was carried out 3, 4, and 5 hours after the yeast injection. Compounds, prepared as homogenates in either 1% methylcellulose or aqueous vehicle, were administered orally 60 minutes before testing. A group of vehicle treated control animals was included in each experiment. Squeak pressure thresholds were measured and recorded for the compound and vehicle-treated groups of rats 3, 4, and 5 hours after administration of the Brewer's yeast (60 minutes after compound treatment). The estimation of analgesia was as follows: 1. the mean response pressure for the daily vehicle control group in the normal and inflammed foot was calculated; 2. for each compound treatment group, the number of animals with response pressures equal to or greater than 25 mm Hg was noted. These animals were considered to be analgesic.
inhibition at 100 µg/mL (PMN 5-lipoxygenase; dose 0.1 mg/ml),inhibition at 300 µg/mL (PMN 5-lipoxygenase; dose 0.3 mg/ml),inhibition at 1000 µg/mL (PMN 5-lipoxygenase),inhibition at 37 µg/mL (PMN 5-lipoxygenase; dose 0.037 mg/ml),SMILES,other results
43%,90%,99%,,"Cc1cc2sc(-c3ccccc3)c(O)c2c(C)n1 [N=5, R=H, X1=4-CH3,6-CH3, X2=H]",
,,,,"CC(=O)Oc1c(-c2ccc(F)cc2)sc2ncccc12 [R=(CO)CH3, X1=H, X2=p-F, 7-aza-3-acetyloxy-2-(4-fluorophenyl)-benzo[b]thiophene]",% Inhibition (yeast hyperalgesia) [1]: 70%
100%,,,,"Oc1c(-c2ccccc2)sc2ncccc12 [N=7, R=H, X1=H, X2=H, 3-Hydroxy-2-phenyl-7-azabenzo[b]thiophene]",inhibition at 12 µg/mL (PMN 5-lipoxygenase; dose 0.012 mg/ml): 32%
100%,,,49%,"CC(=O)Oc1c(-c2ccc(F)cc2)sc2ncccc12 [N=7, R=(CO)CH3, X1=H, X2=p-F, 7-aza-3-acetyloxy-2-(4-fluorophenyl)-benzo[b]thiophene]",inhibition at 10 µg/mL (PMN 5-lipoxygenase): 24%
,,,,"CC(=O)Oc1c(-c2ccccc2)sc2nc(Cl)ccc12 [R=(CO)CH3, X1=6-Cl, X2=H]",% Inhibition (yeast hyperalgesia) [1]: 40%
73%,100%,,,"COc1ccccc1-c1sc2ncccc2c1OC(C)=O [N=7, R=(CO)CH3, X1=H, X2=o-OCH3]",inhibition at 30 µg/mL (PMN 5-lipoxygenase): 33%
97%,100%,,52%,"COc1cccc(-c2sc3ncccc3c2OC(C)=O)c1 [N=7, R=(CO)CH3, X1=H, X2=m-OCH3]",
61%,100%,100%,,"CC(=O)Oc1c(-c2ccc(C(F)(F)F)cc2)sc2ncccc12 [N=7, R=(CO)CH3, X1=H, X2=p-CF3]",
39%,94%,98%,,"Oc1c(-c2cccnc2)sc2ncccc12 [drawing 24, N=7, R=H, X1=H, X2=H]",inhibition at 30 µg/mL (PMN 5-lipoxygenase): 0%
53%,98%,98%,,"CC(C)(C)c1ccc2c(O)c(-c3ccccc3)sc2n1 [N=7, R=H, X1=t-Bu, X2=H, 6-(1,1-dimethylethyl)-3-hydroxy-2-phenyl-7-azabenzo[b]thiophene]",
80%,99%,,22%,"COc1ccc(-c2sc3ccncc3c2OC(C)=O)cc1 [N=5, R=(CO)CH3, X1=H, X2=p-OCH3, 3-Acetyloxy-5-aza-2-(4-methoxyphenyl)benzo[b]thiophene]",% Inhibition (PMN 5-lipoxygenase) (PMN 5-lipoxygenase; dose 0.1 mg/ml): 60%; % Inhibition (PMN 5-lipoxygenase) (PMN 5-lipoxygenase; dose 0.3 mg/ml): 100%
,,,,"CC(=O)Oc1c(-c2ccccc2)sc2ncccc12 [R=(CO)CH3, X1=H, X2=H, 7-aza-3-acetyloxy-2-phenyl-benzo[b]thiophene]",% Inhibition (yeast hyperalgesia) [1]: 60%
21%,73%,100%,,"COc1ccc(-c2sc3cccnc3c2OC(C)=O)cc1 [N=4, R=(CO)CH3, X1=H, X2=p-OCH3, 3-Acetyloxy-2-(4-methoxyphenyl)-4-azabenzo[b]thiophene]",
79%,100%,,,"COc1ccc(-c2sc3cnccc3c2O)cc1 [N=6, R=H, X1=H, X2=p-OCH3, 3-Hydroxy-2-(4-methoxyphenyl)-6-azabenzo[b]thiophene]",inhibition at 30 µg/mL (PMN 5-lipoxygenase): 45%
32%,,100%,22%,"CC(=O)Oc1c(-c2ccccc2)sc2nccc(Cl)c12 [N=7, R=(CO)CH3, X1=4-Cl, X2=H]",
63%,82%,100%,,"CC(=O)Oc1c(-c2ccccc2)sc2nc(Cl)ccc12 [N=7, R=(CO)CH3, X1=6-Cl, X2=H]",
45%,75%,,,COc1ccc(-c2sc3cc(C)nc(C)c3c2OC(C)=O)cc1,inhibition at 30 µg/mL (PMN 5-lipoxygenase): 4%
,,,,"COc1ccc(-c2sc3ncccc3c2O)cc1 [R=H, X1=H, X2=p-OCH3]",% Inhibition (yeast hyperalgesia) [1]: 60%
100%,100%,,,"COc1cccc(-c2sc3ncccc3c2O)c1 [N=7, R=H, X1=H, X2=m-OCH3, 7-Aza-3-hydroxy-2-(3-methoxyphenyl)-benzo[b]thiophene]",inhibition at 30 µg/mL (PMN 5-lipoxygenase): 76%
,,,,"COCC(=O)Oc1c(-c2ccccc2)sc2ncccc12 [R=(CO)CH2 OCH3, X1=H, X2=H]",% Inhibition (yeast hyperalgesia) [1]: 50%
100%,,,59%,"COc1ccc(-c2sc3ncccc3c2OC(C)=O)cc1 [N=7, R=(CO)CH3, X1=H, X2=p-OCH3]",% Inhibition (PMN 5-lipoxygenase) (PMN 5-lipoxygenase; dose 0.037 mg/ml): 70%
99%,100%,,88%,"Oc1c(-c2ccc(F)cc2)sc2ncccc12 [N=7, R=H, X1=H, X2=p-F]",inhibition at 10 µg/mL (PMN 5-lipoxygenase): 32%
,100%,,,"COc1ccc(-c2sc3ccncc3c2O)cc1 [N=5, R=H, X1=H, X2=p-OCH3, 5-Aza-3-hydroxy-2-(4-methoxyphenyl)-benzo[b]thiophene]",inhibition at 400 µg/mL (PMN 5-lipoxygenase; dose 0.4 mg/ml): 63%
100%,,,95%,"CC(=O)Oc1c(-c2ccccc2)sc2ncccc12 [N=7, R=(CO)CH3, X1=H, X2=H, 7-aza-3-acetyloxy-2-phenyl-benzo[b]thiophene]",inhibition at 10 µg/mL (PMN 5-lipoxygenase): 40%
33%,49%,90%,,"COc1ccc(-c2sc3c[n+]([O-])ccc3c2OC(C)=O)cc1 [drawing 25, N=6, R=(CO)CH3, X1=H]",
97%,100%,,58%,"CC(=O)Oc1c(-c2ccccc2)sc2ccncc12 [N=5, R=(CO)CH3, X1=H, X2=H, 3-Acetyloxy-5-aza-2-phenylbenzo[b]thiophene]",
100%,,,24%,"COc1ccc(-c2sc3ncccc3c2O)cc1 [N=7, R=H, X1=H, X2=p-OCH3]",
77%,100%,,39%,"CC(=O)Oc1c(-c2ccc(C#N)cc2)sc2ncccc12 [N=7, R=(CO)CH3, X1=H, X2=p-CN]",

SMILES,inhibition at 100 µg/mL (PMN 5-lipoxygenase; dose 0.1 mg/ml),inhibition at 300 µg/mL (PMN 5-lipoxygenase; dose 0.3 mg/ml),inhibition at 1000 µg/mL (PMN 5-lipoxygenase),inhibition at 37 µg/mL (PMN 5-lipoxygenase; dose 0.037 mg/ml),other results
"CC(=O)Oc1c(-c2ccccc2)sc2nc(C(C)(C)C)ccc12 [N=7, R=(CO)CH3, X1=t-Bu, X2=H, 3-Acetoxy-6-(1,1-dimethylethyl)-2-phenyl-7-azabenzo[b]thiophene]",34%,70%,95%,,inhibition at 30 µg/mL (PMN 5-lipoxygenase): 23%
